US20190062305A1, “PYRIDYL OR PYRAZINYL COMPOUNDS CARRYING A METHYL-BOUND ALPHA-AMINO ACID AMIDE GROUP” (ABBVIE DEUTSCHLAND GMBH & CO. KG, priority 2015, published 2019)
Structures can show the parent of a compound that is named as a salt. Where two headings read alike, the source gives them in different places.

Assays:
5-HT2C receptor = target: T1, 5-HT2C receptor (Homo sapiens, UniProt P28335); experiment: Human 5-HT2C functional assay (beta-arrestin2 recruitment, U2OS_HTR2C_β-Arrestin cells); assay type: cell-based; conditions: for EC50: beta-arrestin2 recruitment, U2OS_HTR2C_β-Arrestin cells, 1.5 h incubation, read-out: EC50 5-HT2C (potency in functional assay)
T1 construct: host or cells: U2OS
T1 sequence (P28335 33-458): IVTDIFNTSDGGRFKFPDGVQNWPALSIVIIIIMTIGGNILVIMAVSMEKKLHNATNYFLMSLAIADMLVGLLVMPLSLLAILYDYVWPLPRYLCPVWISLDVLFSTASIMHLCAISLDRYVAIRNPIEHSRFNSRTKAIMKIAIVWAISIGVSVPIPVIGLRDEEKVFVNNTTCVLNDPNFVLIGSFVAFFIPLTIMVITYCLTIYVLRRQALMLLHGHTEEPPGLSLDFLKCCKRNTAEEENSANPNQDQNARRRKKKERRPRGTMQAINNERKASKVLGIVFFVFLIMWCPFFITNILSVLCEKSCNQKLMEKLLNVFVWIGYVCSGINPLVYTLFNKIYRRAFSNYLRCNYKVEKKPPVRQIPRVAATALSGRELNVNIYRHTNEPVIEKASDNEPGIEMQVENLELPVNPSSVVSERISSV
T1 sequence (P32121 whole entry partner): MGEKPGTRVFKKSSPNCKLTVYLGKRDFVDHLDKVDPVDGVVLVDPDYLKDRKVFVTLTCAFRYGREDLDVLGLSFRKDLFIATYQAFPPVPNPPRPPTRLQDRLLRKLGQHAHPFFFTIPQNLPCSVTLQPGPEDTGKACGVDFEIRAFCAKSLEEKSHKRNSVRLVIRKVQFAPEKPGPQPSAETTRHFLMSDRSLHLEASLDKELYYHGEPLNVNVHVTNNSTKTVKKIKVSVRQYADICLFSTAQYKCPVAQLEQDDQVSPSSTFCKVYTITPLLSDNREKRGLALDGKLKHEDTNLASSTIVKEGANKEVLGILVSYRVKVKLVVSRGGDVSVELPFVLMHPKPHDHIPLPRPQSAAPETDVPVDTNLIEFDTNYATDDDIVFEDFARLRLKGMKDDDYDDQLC
Description: The functional activity of compounds of formula I was assayed by incubation with U2OS_HTR2C_β-Arrestin cells (DiscoverX, 93-0289C3) to induce beta-arrestin2 recruitment to the 5-HT2C receptor. The agonist-induced recruitment and proximity of the receptor and beta-arrestin2 leads to complementation and formation of active β-galactosidase. The enzyme complementation results in enzyme activity, which is measured following the termination of the agonist incubation using DiscoveRx's detection reagent, which contains a chemiluminescent substrate which produces a high intensity signal. Cells were plated and a medium-change to a 1% serum containing medium was performed 24h later. The next day, test compounds were added and incubated for 1.5 h before addition of detection reagent.
The response produced was measured and compared with the response produced by 10 [mu]M 5-HT or the maximal effect induced by 5-HT (defined as 100%) to which it was expressed as a percentage response (relative efficacy). Dose response curves were constructed using Graphpad Prism (Graph Software Inc.) or using in house adapted software using a 4 parameter dose response model with variable slope (fit=(Bottom+(Top-Bottom)/(1+10^∧((Log EC50−x)*HillSlope))res=(y-fit)). Results are compiled in the table below.

[1] = Metabolic stability in human liver microsomes, unbound intrinsic clearance (Cl int/fu mic); assay type: in vitro ADME; conditions: 0.5 μM compound, NADPH; for CLint scaled at 0.5 μM: pH 7.4, human liver microsomes 0.25 mg/mL, read-out: Cl int, mic unb. (h) [l/h/kg] (unbound intrinsic clearance, human)
Description: Samples of the tested compounds (0.5 μM) were preincubated together with human liver microsomes (0.25 mg of microsomal protein/mL) in 0.05 M potassium phosphate buffer of pH 7.4 in microtiter plates at 37° C. for 5 minutes. The reaction was started by adding NADPH (1.0 mM). After 0, 5, 10, 15, 20 and 30 minutes, an aliquot was removed, the reaction was cooled and stopped by adding twice the amount of quench solution consisting of acetonitrile/methanol 1:1, and containing 0.2 μM carbutamide as internal standard. The samples were frozen until analyzed. The remaining concentration of undegraded test substance was determined by liquid chromatography-tandem mass spectrometry (LC-MS/MS). The half-life (t1/2) was determined from the gradient of the ratio of the signal of (test substance/internal standard)/unit time plot, allowing the calculation of the half-life of the test substance, assuming first order kinetics, from the decrease in the concentration of the compound with time. The microsomal clearance ([…]) was calculated as follows: […]=((ln(2)/t 1⁄2)/Microsomal Protein Concentration (mg/ml))*1000, leading to the unit of uL/min/mg. The scaled clearance (mClin_scaled) was calculated as […]_scaled=m CLint*(Microsomal Yield (mg/kg BW))/1000000*60, leading to the units L/h/kg. The Microsomal Yield is defined by the specifics of the used microsomes. Calculations were modified from references: Di, The Society for Biomolecular Screening, 2003, 453-462; Obach, D M D, 1999 vol 27. N 11, 1350-1359. A suspension of 0.25 mg/ml microsomal protein spiked with 0.5 μM of test compound was pipetted on one side of a HTDialysis device (HTDialysis LLC, 37 Ledgewood Drive, Gales Fery CT 06335) separated by a membrane with a MWcut off 12-14 K. 50 mM K-Phosphate buffer (pH 7.4) was added on the other side of the well. After incubation at 37° C. for 4 h while shaking at 150 rpm, aliquots of both sides were taken, quenched with MeOH/ACN 1:1 and 0.2 μM of internal standard and frozen until analysis by LCMSMS Cl int unbound=Cl int/fu mic

[2] = relative efficacy vs response to 10 μM 5-HT or maximal 5-HT effect (100%)

SMILES: COc1nc(NC2CCC(F)(F)CC2)c(F)cc1CNC(=O)[C@@H]1CCCN1 [Example 126, (2S)—N-[[6-[(4,4-Difluorocyclohexyl)amino]-5-fluoro-2-methoxy-3-pyridyl]methyl]pyrrolidine-2-carboxamide; 2,2,2-trifluoroacetic Acid]
- EC50 (5-HT2C receptor): < 20 nM
- Emax (5-HT2C receptor; [2]): > 70%
- CLint scaled at 0.5 μM ([1]; human, liver microsomes): < 5 L/h/kg

SMILES: COc1nc(OCC2CC(F)(F)C2)c(F)cc1CN(C)C(=O)[C@@H]1CCCN1C [Example 106, (2S)—N-[[6-[(3,3-Difluorocyclobutyl)methoxy]-5-fluoro-2-methoxy-3-pyridyl]-methyl]-N,1-dimethyl-pyrrolidine-2-carboxamide Hydrochloride]
- EC50 (5-HT2C receptor): 20 to 200 nM
- Emax (5-HT2C receptor; [2]): 30 to 50%
- CLint scaled at 0.5 μM ([1]; human, liver microsomes): < 5 L/h/kg

SMILES: COc1nc(OCC(F)(F)C(F)(F)F)c(F)cc1CNC(=O)[C@@H]1CCCN1 [Example 18, (2S)—N-[[5-Fluoro-2-methoxy-6-(2,2,3,3,3-pentafluoropropoxy)-3-pyridyl]methyl]-pyrrolidine-2-carboxamide; Succinic Acid]
- EC50 (5-HT2C receptor): < 20 nM
- Emax (5-HT2C receptor; [2]): > 70%
- CLint scaled at 0.5 μM ([1]; human, liver microsomes): < 5 L/h/kg

SMILES: COCCCCc1nc(OC)c(CNC(=O)[C@@H]2CCCN2)cc1F [Example 193, (2S)—N-[[5-Fluoro-2-methoxy-6-(4-methoxybutyl)-3-pyridyl]methyl]pyrrolidine-2-carboxamide]
- EC50 (5-HT2C receptor): 200 to 1000 nM
- Emax (5-HT2C receptor; [2]): > 70%
- CLint scaled at 0.5 μM ([1]; human, liver microsomes): < 5 L/h/kg

SMILES: COc1nc(OC2CCC3(CC2)CC3(F)F)c(F)cc1CNC(=O)[C@@H]1CCCN1 (stereo partly drawn) [Example 118, (2S)—N-[[6-(2,2-Difluorospiro[2.5]octan-6-yl)oxy-5-fluoro-2-methoxy-3-pyridyl]methyl]pyrrolidine-2-carboxamide; 2,2,2-trifluoroacetic Acid]
- EC50 (5-HT2C receptor): < 20 nM
- Emax (5-HT2C receptor; [2]): > 70%
- CLint scaled at 0.5 μM ([1]; human, liver microsomes): 5 to 50 L/h/kg

SMILES: COc1nc(OC2CC(OC)C2)c(F)cc1CNC(=O)[C@@H]1CCCN1 (stereo partly drawn) [Example 104, (2S)—N-[[5-Fluoro-2-methoxy-6-(3-methoxycyclobutoxy)-3-pyridyl]methyl]-pyrrolidine-2-carboxamide Hydrochloride]
- EC50 (5-HT2C receptor): < 20 nM
- Emax (5-HT2C receptor; [2]): > 70%
- CLint scaled at 0.5 μM ([1]; human, liver microsomes): < 5 L/h/kg

SMILES: COc1nc(O[C@H]2CCC[C@H](C(F)(F)F)C2)c(F)cc1CNC(=O)[C@@H]1CCCN1 (relative stereo) [Example 89, (2S)—N-[[5-Fluoro-2-methoxy-6-[(1S,3S)-3-(trifluoromethyl)cyclohexoxy]-3-pyridyl]methyl]pyrrolidine-2-carboxamide Hydrochloride]
- EC50 (5-HT2C receptor): < 20 nM
- Emax (5-HT2C receptor; [2]): > 70%
- CLint scaled at 0.5 μM ([1]; human, liver microsomes): 5 to 50 L/h/kg

SMILES: COc1nc(OC2CCCC(F)(F)C2)c(F)cc1CNC(=O)[C@@H]1CCCN1 (stereo partly drawn) [Example 58, (2S)—N-[[6-(3,3-Difluorocyclohexoxy)-5-fluoro-2-methoxy-3-pyridyl]methyl]-pyrrolidine-2-carboxamide; 2,2,2-trifluoroacetic Acid]
- EC50 (5-HT2C receptor): < 20 nM
- Emax (5-HT2C receptor; [2]): > 70%
- CLint scaled at 0.5 μM ([1]; human, liver microsomes): < 5 L/h/kg

SMILES: COc1nc(OC2CCC(C(C)(F)F)CC2)c(F)cc1CNC(=O)[C@@H]1CCCN1 (single isomer, unassigned; isomer 2) [Example 74]
- EC50 (5-HT2C receptor): < 20 nM
- % efficacy (5-HT2C receptor; [2]): +++ (>70%)
- Cl int, mic unb. (h) [l/h/kg] (unbound intrinsic clearance, human) ([1]; human liver microsomes 0.25 mg/mL): ++ (from 5 to <50 l/h/kg)

SMILES: COc1nc(Nc2ccc(F)cc2)c(F)cc1CNC(=O)[C@@H]1CCCN1 [Example 178, (2S)—N-[[5-Fluoro-6-(4-fluoroanilino)-2-methoxy-3-pyridyl]methyl]pyrrolidine-2-carboxamide; 2,2,2-trifluoroacetic Acid]
- EC50 (5-HT2C receptor): 200 to 1000 nM
- CLint scaled at 0.5 μM ([1]; human, liver microsomes): < 5 L/h/kg

SMILES: COc1nc(O[C@H]2CC[C@@H](C(F)(F)F)CC2)c(F)cc1CN(C)C(=O)[C@@H]1CCCN1 [Example 119, (2S)—N-[[5-Fluoro-2-methoxy-6-[cis-4-(trifluoromethyl)cyclohexoxy]-3-pyridyl]-methyl]-N-methyl-pyrrolidine-2-carboxamide hydrochloride]
- EC50 (5-HT2C receptor): 20 to 200 nM
- Emax (5-HT2C receptor; [2]): > 70%
- CLint scaled at 0.5 μM ([1]; human, liver microsomes): 5 to 50 L/h/kg

SMILES: COc1nc(C2CCCCC2)c(F)cc1CNC(=O)[C@@H]1CCCN1 [Example 132, (2S)—N-[(6-Cyclohexyl-5-fluoro-2-methoxy-3-pyridyl)methyl]pyrrolidine-2-carboxamide; 2,2,2-trifluoroacetic Acid]
- EC50 (5-HT2C receptor): < 20 nM
- Emax (5-HT2C receptor; [2]): > 70%
- CLint scaled at 0.5 μM ([1]; human, liver microsomes): 50 to 500 L/h/kg

SMILES: COc1nc(OC2CCC(OC)CC2)c(F)cc1CNC(=O)[C@@H]1CCCN1 (stereo partly drawn) [Example 12, (2S)—N-[[5-Fluoro-2-methoxy-6-(4-methoxycyclohexoxy)-3-pyridyl]methyl]-pyrrolidine-2-carboxamide; Fumaric Acid]
- EC50 (5-HT2C receptor): 20 to 200 nM
- Emax (5-HT2C receptor; [2]): > 70%
- CLint scaled at 0.5 μM ([1]; human, liver microsomes): < 5 L/h/kg

SMILES: COc1nc(O[C@H]2CC[C@H](F)CC2)c(F)cc1CNC(=O)[C@@H]1CCCN1 [Example 31, (2S)—N-[[5-Fluoro-6-(trans-4-fluorocyclohexoxy)-2-methoxy-3-pyridyl]methyl]-pyrrolidine-2-carboxamide; Fumaric Acid]
- EC50 (5-HT2C receptor): < 20 nM
- Emax (5-HT2C receptor; [2]): > 70%
- CLint scaled at 0.5 μM ([1]; human, liver microsomes): < 5 L/h/kg

SMILES: COc1nc(N2CC(F)(F)C(F)(F)C(F)(F)C2)c(F)cc1CNC(=O)[C@@H]1CCCN1 [Example 182, (2S)—N-[[5-Fluoro-6-(3,3,4,4,5,5-hexafluoro-1-piperidyl)-2-methoxy-3-pyridyl]-methyl]pyrrolidine-2-carboxamide Hydrochloride]
- EC50 (5-HT2C receptor): < 20 nM
- Emax (5-HT2C receptor; [2]): > 70%
- CLint scaled at 0.5 μM [1]: 5 to 50 L/h/kg

SMILES: COc1nc(OCC2(C(F)(F)F)CC2)c(F)cc1CNC(=O)[C@@H]1CCCN1C [Example 63, (2S)—N-[[5-Fluoro-2-methoxy-6-[[1-(trifluoromethyl)cyclopropyl]methoxy]-3-pyridyl]methyl]-1-methyl-pyrrolidine-2-carboxamide Hydrochloride]
- EC50 (5-HT2C receptor): < 20 nM
- Emax (5-HT2C receptor; [2]): > 70%
- CLint scaled at 0.5 μM ([1]; human, liver microsomes): < 5 L/h/kg

SMILES: COc1nc(NC2CCC(C(F)(F)F)CC2)c(F)cc1CNC(=O)[C@@H]1CCCN1 (stereo partly drawn) [Example 130, (2S)—N-[[5-Fluoro-2-methoxy-6-[[4-(trifluoromethyl)cyclohexyl]amino]-3-pyridyl]methyl]pyrrolidine-2-carboxamide]
- EC50 (5-HT2C receptor): < 20 nM
- Emax (5-HT2C receptor; [2]): > 70%
- CLint scaled at 0.5 μM ([1]; human, liver microsomes): 5 to 50 L/h/kg

SMILES: COc1nc(OC2CCC(F)(F)CC2)c(F)cc1CNC(=O)[C@@H]1CCCN1 [Example 1, (2S)—N-[[6-(4,4-Difluorocyclohexoxy)-5-fluoro-2-methoxy-3-pyridyl]methyl]-pyrrolidine-2-carboxamide; Fumaric Acid]
- EC50 (5-HT2C receptor): < 20 nM
- Emax (5-HT2C receptor; [2]): > 70%
- CLint scaled at 0.5 μM ([1]; human, liver microsomes): < 5 L/h/kg

SMILES: COc1nc(N(C)C2CCC(F)(F)CC2)c(F)cc1CNC(=O)[C@@H]1CCCN1 [Example 154, (2S)—N-[[6-[N-(4,4-Difluorocyclohexyl)-N-methyl-amino]-5-fluoro-2-methoxy-3-pyridyl]methyl]pyrrolidine-2-carboxamide; 2,2,2-trifluoroacetic Acid]
- EC50 (5-HT2C receptor): 20 to 200 nM
- Emax (5-HT2C receptor; [2]): > 70%
- CLint scaled at 0.5 μM ([1]; human, liver microsomes): 5 to 50 L/h/kg

SMILES: COc1nc(N2CCC(F)C2)c(F)cc1CNC(=O)[C@@H]1CCCN1 (stereo partly drawn) [Example 162, (2S)—N-[[5-Fluoro-6-(3-Fluoropyrrolidin-1-yl)-2-methoxy-3-pyridyl]methyl]-pyrrolidine-2-carboxamide; 2,2,2-trifluoroacetic Acid]
- EC50 (5-HT2C receptor): 20 to 200 nM
- Emax (5-HT2C receptor; [2]): 50 to 70%
- CLint scaled at 0.5 μM ([1]; human, liver microsomes): 5 to 50 L/h/kg
